Assay results: patent US11382929B2, “Compositions and methods to treat disease” (REGENTS OF THE UNIVERSITY OF MINNESOTA, priority 2019, dated 2022)
Entries after “also recorded” stand apart in the source; their conditions may differ.

Assays:
EMT-6 = test: MTT cytotoxicity in 2D monolayer cell culture; type: cell-based; details: Mus musculus, EMT6
Description: (§1) Cytotoxicity in 2D Monolayer Cell Culture A mouse breast cancer cell line EMT-6 (ATCC, Manassas, Va.), two human breast cancer cell lines MDA-MB-231(ATCC) and MCF-7(ATCC), and one human glioma cancer cell line T98G(ATCC) were used in standard MTT assays (T. Mosmann, J Immunol Methods 65(1-2) (1983) 55-63) to test the cytotoxicity of PAHM polymers with different molecular weight and concentration after 24 and 48 h of treatment. D ox-HCl was also tested for comparison. All of the four cancer cell lines were incubated in corresponding cell culture media, EMT-6 media (DMEM high glucose, 10% FBS, 100 U/mL penicillin/streptomycin), T98G and MDA-MB-231 media (DMEM low glucose, 10% FBS, 100 U/mL penicillin/streptomycin), MCF-7 media (DMEM low glucose, 10% FBS, insulin, 100 U/mL penicillin/streptomycin), at 37° C., and a humidified atmosphere containing 5% CO2.
(§2) The MTT assay of PAHM polymers and Dox-HCl on EMT-6 cells exemplified the general experimental procedures. EMT-6 cells were seeded into 96-well plates at 5000 cells/well and cultured for 20 h in EMT-6 media at 5% CO2 and 37° C. Afterwards polymers of various molecular weight and concentrations were added to the cells and cultured for 24 h or 48 h. MTT in PBS (5 mg/mL, 20 μL) was then added to each well, reaching a final concentration of 0.5 mg/mL. After 4 h, unreacted MTT was removed by aspiration. The formazan crystals were dissolved in 150 μL of DMSO, and the absorbance was measured at 570 nm using a Bio-Tek Synergy HT plate reader. Cell viability was calculated by [absorbance of cells exposed to polymers]/[absorbance of cells cultured without polymers] in percentage. Cell images were captured before MTT was added using an Olympus IX70 […] microscope under polarized light.

T98G = test: MTT cytotoxicity in 2D monolayer cell culture; type: cell-based; details: Homo sapiens, 24 h treatment
Description: as §1, §2

AsPC-1 cells = test: PAHM+Dox cytotoxicity assay (MTT); type: cell-based, human; details: AsPC-1, PAHM and Dox used in combination
Description: AsPC-1 or EMT6 cells were plated at 5000 cells/well (in 100 μL phenol red free medium) in 96-well plates. After culturing overnight (˜20 h), the medium was removed, and 100 μL medium containing various concentrations of PAHM and/or Dox was added to the cells. AsPC-1 cells were exposed to 1-100 μg/mL PAHM, 1-100 μg/mL Dox, or combinations of PAHM and Dox at a 1:1 ratio. EMT6 cells were exposed to 1-100 μg/mL PAHM, 0.02-2 μg/mL Dox, or combinations of PAHM and Dox at a 50:1 ratio. After 24 h exposure, the PAHM and Dox solutions were removed and 100 μL phenol red free medium was added to the cells. Cell viability was measured using an MTT assay. To each well, 10 μL MTT solution (12 mM in PBS) was added. After 4 h, 85 μL was removed from each well and formazan was solubilized in 100 μL dimethyl sulfoxide (DMSO). Absorbance was measured at 540 nm using a plate reader (BioTek™ Cytation™ 3 Cell Imaging Multi-Mode Reader controlled by Gen5™ All-In-One Microplate Reader Software). Data was analyzed in Microsoft Excel and Combination Indices and Dose Reduction Indices were calculated using CompuSyn (ComboSyn, Inc.)

EMT-6 tumors = test: In vivo EMT-6 tumor model, anti-tumor effect; design: species or system Balb/C mice; details: 8 mice per group, charge ratios 1, 4, 16 (low, med, high heparin dose) or equivalent heparin alone
[1] = Particle size of complexes by dynamic light scattering; type: physicochemical; details: complex of the anionic polymer with PAHM
Description: Heparin (sodium salt) was mixed with PAHM in 20 mM HEPES buffer (pH 7.4) and incubated for 30 minutes at room temperature. The charge ratio of heparin and PAHM was adjusted based on the assumption that one repeating unit of PAHM (Mw 325.88) bears 1 mole of positive charge (approximately the same number of primary amino groups) and that one repeating unit of heparin (Mw 1471) carries 8 moles of negative charges (approximately the number of carboxylate and sulfate groups combined). The final PAHM concentration was kept constant as 0.1 mg/mL. To determine the average particle size of the nano-complexes, the heparin/PAHM mixtures were diluted 20 times to a final volume of 2 mL in HEPES buffer. The average hydrodynamic diameter (or particle size) in HEPES buffer (20 mM) at 25° C. were determined using a ZetaPlus Particle Analyzer (Brookhaven Instruments Corporation, Holtsville, N.Y.; 27 mW laser; 658 nm incident beam, 90° scattering angle). Nano-complexes with heparin/PAHM charge ratios ranging from 1 to 32 were prepared as described above and measured by DLS.

erythrocytes (RBC) = test: Hemolysis; type: cell-based, mouse; details: complex of the anionic polymer with PAHM, data not shown

Compound: COc1cccc2c1C(=O)c1c(O)c3c(c(O)c1C2=O)C[C@@](O)(C(=O)CO)C[C@@H]3O[C@H]1C[C@H](N)[C@H](O)[C@H](C)O1 [Dox, doxorubicin]
- IC50 (EMT-6; EMT-6, 24 h treatment): 10 to 15 µg/mL
- IC50 (EMT-6; EMT-6, 48 h): 5 µg/mL
- IC50 (T98G): > 40 µg/mL
- Dose Reduction Index (DRI) (AsPC-1 cells): much higher; also recorded: All but one DRI values are above 1

Compound: heparin
- tumor growth (tumor volume and weight) (EMT-6 tumors): modest but insignificant effect on tumor growth

Compound: hyaluronic acid [HA]
- particles formed with PAHM (size) [1]: nano to micro scale
- hemolytic activity of PAHM in complexed form (erythrocytes (RBC)): reduced, sometimes abolished
